Reference: PubChem BioAssay (NCI)
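Where inhibition never reached the appropriate level, the endpoint shown equals the highest concentration tested. Otherwise, values were interpolated linearly from a five-concentration, 48-hour dose response in 96-well plates. GI50 = concentration required for 50% inhibition of growth. TGI marks complete inhibition of growth.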

Assays:
Test in all cases: NCI anticancer screen, dose series, 48 h; in the data active means GI50 below about 0.43 µM; inactive means the rest
[1] = tested on: 786-0 renal
[2] = tested on: A498 renal
[3] = tested on: A549 NSCLC
[4] = tested on: ACHN renal
[5] = tested on: CCRF-CEM leukemia
[6] = tested on: COLO 205 colon
[7] = tested on: DLD-1 colon
[8] = tested on: DMS 273 small cell lung
[9] = tested on: EKVX NSCLC
[10] = tested on: HCC-2998 colon
[11] = tested on: HCT-116 colon
[12] = tested on: HL-60(TB) leukemia
[13] = tested on: HOP-18 NSCLC
[14] = tested on: HOP-62 NSCLC
[15] = tested on: HOP-92 NSCLC
[16] = tested on: HT29 colon
[17] = tested on: IGROV1 ovarian
[18] = tested on: K-562 leukemia
[19] = tested on: KM12 colon
[20] = tested on: KM20L2 colon
[21] = tested on: LOX IMVI melanoma
[22] = tested on: LXFL 529 NSCLC
[23] = tested on: M14 melanoma
[24] = tested on: MALME-3M melanoma
[25] = tested on: MOLT-4 leukemia
[26] = tested on: NCI-H226 lung
[27] = tested on: NCI-H23 lung
[28] = tested on: NCI-H460 lung
[29] = tested on: NCI-H522 lung
[30] = tested on: OVCAR-3 ovarian
[31] = tested on: OVCAR-5 ovarian
[32] = tested on: OVCAR-8 ovarian
[33] = tested on: RPMI-8226 leukemia
[34] = tested on: RXF 393 renal
[35] = tested on: SF-268 CNS
[36] = tested on: SF-295 CNS
[37] = tested on: SF-539 CNS
[38] = tested on: SK-MEL-2 melanoma
[39] = tested on: SK-MEL-28 melanoma
[40] = tested on: SK-MEL-5 melanoma
[41] = tested on: SK-OV-3 ovarian
[42] = tested on: SN12C renal
[43] = tested on: SNB-19 CNS
[44] = tested on: SNB-75 CNS
[45] = tested on: SR leukemia
[46] = tested on: SW-620 colon
[47] = tested on: TK-10 renal
[48] = tested on: U251 CNS
[49] = tested on: UACC-257 melanoma
[50] = tested on: UACC-62 melanoma
[51] = tested on: UO-31 renal
[52] = tested on: CAKI-1 renal
[53] = tested on: DMS 114 small cell lung
[54] = tested on: HCT-15 colon
[55] = tested on: OVCAR-4 ovarian
[56] = tested on: SNB-78 CNS
[57] = tested on: M19-MEL melanoma
[58] = tested on: XF 498 CNS

Cc1nnn[n-]1.N.N.N.N.N.[Cl-].[Co+3]
inactive: GI50 [1] > 100 µM | GI50 [2] 4.14 µM | GI50 [3] > 100 µM | GI50 [4] > 100 µM | GI50 [5] > 100 µM | GI50 [6] > 100 µM | GI50 [7] > 100 µM | GI50 [8] > 100 µM | GI50 [9] > 100 µM | GI50 [10] > 100 µM | GI50 [11] > 100 µM | GI50 [12] > 100 µM | GI50 [13] > 100 µM | GI50 [14] > 100 µM | GI50 [15] > 100 µM | GI50 [16] > 100 µM | GI50 [17] 2.88 µM | GI50 [18] > 100 µM | GI50 [19] > 100 µM | GI50 [20] > 100 µM | GI50 [21] > 100 µM | GI50 [22] > 100 µM | GI50 [23] > 100 µM | GI50 [24] > 100 µM | GI50 [25] > 100 µM | GI50 [26] > 100 µM | GI50 [27] > 100 µM | GI50 [28] > 100 µM | GI50 [29] > 100 µM | GI50 [30] > 100 µM | GI50 [31] > 100 µM | GI50 [32] > 100 µM | GI50 [33] > 100 µM | GI50 [34] > 100 µM | GI50 [35] > 100 µM | GI50 [36] > 100 µM | GI50 [37] > 100 µM | GI50 [38] > 100 µM | GI50 [39] > 100 µM | GI50 [40] 1.86 µM | GI50 [41] > 100 µM | GI50 [42] > 100 µM | GI50 [43] > 100 µM | GI50 [44] > 100 µM | GI50 [45] > 100 µM | GI50 [46] > 100 µM | GI50 [47] > 100 µM | GI50 [48] > 100 µM | GI50 [49] > 100 µM | GI50 [50] > 100 µM | GI50 [51] > 100 µM
10.7 µM: TGI [40]
> 100 µM: TGI [1] | TGI [3] | TGI [4] | TGI [5] | TGI [6] | TGI [7] | TGI [8] | TGI [9] | TGI [10] | TGI [11] | TGI [12] | TGI [13] | TGI [14] | TGI [15] | TGI [16] | TGI [18] | TGI [19] | TGI [20] | TGI [21] | TGI [22] | TGI [23] | TGI [24] | TGI [25] | TGI [26] | TGI [27] | TGI [28] | TGI [29] | TGI [30] | TGI [31] | TGI [32] | TGI [33] | TGI [34] | TGI [35] | TGI [36] | TGI [37] | TGI [38] | TGI [39] | TGI [41] | TGI [42] | TGI [43] | TGI [44] | TGI [45] | TGI [46] | TGI [47] | TGI [48] | TGI [49] | TGI [50] | TGI [51]
72 µM: TGI [2]
85 µM: TGI [17]

COc1ccc(/C=N/N=C(\N)NO)cc1O
63.6 µM: TGI [24]
64.2 µM: TGI [15]
> 100 µM: TGI [3] | TGI [52] | TGI [5] | TGI [6] | TGI [7] | TGI [53] | TGI [9] | TGI [10] | TGI [11] | TGI [54] | TGI [13] | TGI [16] | TGI [17] | TGI [18] | TGI [19] | TGI [21] | TGI [22] | TGI [25] | TGI [26] | TGI [27] | TGI [28] | TGI [55] | TGI [31] | TGI [33] | TGI [34] | TGI [35] | TGI [38] | TGI [39] | TGI [40] | TGI [41] | TGI [42] | TGI [43] | TGI [56] | TGI [46] | TGI [48] | TGI [50] | TGI [51]
94.4 µM: TGI [37]
55.7 µM: TGI [1]

O=C(O)CCC(=O)N1c2ccccc2CC1c1c[nH]c2ccccc12 (centres undefined)
> 100 µM: TGI [1] | TGI [2] | TGI [3] | TGI [4] | TGI [52] | TGI [5] | TGI [6] | TGI [53] | TGI [8] | TGI [9] | TGI [10] | TGI [11] | TGI [54] | TGI [12] | TGI [13] | TGI [14] | TGI [15] | TGI [16] | TGI [17] | TGI [18] | TGI [19] | TGI [20] | TGI [21] | TGI [22] | TGI [23] | TGI [57] | TGI [24] | TGI [25] | TGI [26] | TGI [27] | TGI [28] | TGI [29] | TGI [30] | TGI [55] | TGI [31] | TGI [32] | TGI [33] | TGI [34] | TGI [35] | TGI [36] | TGI [37] | TGI [38] | TGI [39] | TGI [40] | TGI [41] | TGI [42] | TGI [43] | TGI [44] | TGI [56] | TGI [46] | TGI [47] | TGI [48] | TGI [49] | TGI [50] | TGI [51] | TGI [58]
